Where two headings read alike, the source gives them in different places. Starred links: 1 amine or outer side, 2 acyl side, 3 side chain; linkers in the order of their positions; H or OH if unused. Positions of bridges follow the written chain, without caps; N, C: chain ends. Non-standard residues stand in square brackets, D forms with d. Residues, ends and D or L forms follow the SMILES beside them. Pen = CC(C)(S)[C@H](N)C(=O)O; hCys = N[C@@H](CCS)C(=O)O; Orn = NCCC[C@H](N)C(=O)O; Dab = NCC[C@H](N)C(=O)O; X1 = O=C(C[*:2])[*:1]; X2 = O=C(C[*:1])[*:2]
Assays:
human integrin αvβ5 = human integrin αvβ5 (Homo sapiens, UniProt P06756+P18084); assay: Evaluation of integrin binding property (surface plasmon resonance, Biacore 3000, immobilized cyclic peptide)
Sequence of human integrin αvβ5 (P06756 31-1048): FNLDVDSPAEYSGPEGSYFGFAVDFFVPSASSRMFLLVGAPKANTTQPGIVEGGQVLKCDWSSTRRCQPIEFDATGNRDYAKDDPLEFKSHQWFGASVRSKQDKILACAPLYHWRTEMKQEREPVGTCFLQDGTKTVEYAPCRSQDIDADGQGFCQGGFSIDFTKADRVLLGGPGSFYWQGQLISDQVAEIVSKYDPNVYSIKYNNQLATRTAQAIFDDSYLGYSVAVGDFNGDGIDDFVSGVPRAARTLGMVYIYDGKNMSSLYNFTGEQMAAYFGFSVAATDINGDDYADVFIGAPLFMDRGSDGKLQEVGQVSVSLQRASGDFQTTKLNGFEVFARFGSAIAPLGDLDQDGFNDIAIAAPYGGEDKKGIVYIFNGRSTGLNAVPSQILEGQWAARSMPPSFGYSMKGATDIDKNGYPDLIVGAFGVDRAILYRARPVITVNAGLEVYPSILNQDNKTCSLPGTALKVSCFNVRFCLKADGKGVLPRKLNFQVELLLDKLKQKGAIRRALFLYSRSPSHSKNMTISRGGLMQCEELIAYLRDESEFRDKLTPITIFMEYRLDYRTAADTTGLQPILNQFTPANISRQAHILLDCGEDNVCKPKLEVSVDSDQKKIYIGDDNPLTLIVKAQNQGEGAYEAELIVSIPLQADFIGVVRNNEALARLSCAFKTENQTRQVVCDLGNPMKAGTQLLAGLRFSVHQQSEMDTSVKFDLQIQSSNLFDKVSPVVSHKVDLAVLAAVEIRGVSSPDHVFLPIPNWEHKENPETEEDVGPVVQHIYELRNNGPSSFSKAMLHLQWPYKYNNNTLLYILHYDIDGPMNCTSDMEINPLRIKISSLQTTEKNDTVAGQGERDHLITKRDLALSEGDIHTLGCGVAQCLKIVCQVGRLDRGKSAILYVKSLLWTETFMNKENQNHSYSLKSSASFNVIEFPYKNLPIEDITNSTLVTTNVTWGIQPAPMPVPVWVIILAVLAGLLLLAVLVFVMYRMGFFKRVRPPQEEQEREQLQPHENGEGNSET
Sequence of human integrin αvβ5 (P18084 24-799): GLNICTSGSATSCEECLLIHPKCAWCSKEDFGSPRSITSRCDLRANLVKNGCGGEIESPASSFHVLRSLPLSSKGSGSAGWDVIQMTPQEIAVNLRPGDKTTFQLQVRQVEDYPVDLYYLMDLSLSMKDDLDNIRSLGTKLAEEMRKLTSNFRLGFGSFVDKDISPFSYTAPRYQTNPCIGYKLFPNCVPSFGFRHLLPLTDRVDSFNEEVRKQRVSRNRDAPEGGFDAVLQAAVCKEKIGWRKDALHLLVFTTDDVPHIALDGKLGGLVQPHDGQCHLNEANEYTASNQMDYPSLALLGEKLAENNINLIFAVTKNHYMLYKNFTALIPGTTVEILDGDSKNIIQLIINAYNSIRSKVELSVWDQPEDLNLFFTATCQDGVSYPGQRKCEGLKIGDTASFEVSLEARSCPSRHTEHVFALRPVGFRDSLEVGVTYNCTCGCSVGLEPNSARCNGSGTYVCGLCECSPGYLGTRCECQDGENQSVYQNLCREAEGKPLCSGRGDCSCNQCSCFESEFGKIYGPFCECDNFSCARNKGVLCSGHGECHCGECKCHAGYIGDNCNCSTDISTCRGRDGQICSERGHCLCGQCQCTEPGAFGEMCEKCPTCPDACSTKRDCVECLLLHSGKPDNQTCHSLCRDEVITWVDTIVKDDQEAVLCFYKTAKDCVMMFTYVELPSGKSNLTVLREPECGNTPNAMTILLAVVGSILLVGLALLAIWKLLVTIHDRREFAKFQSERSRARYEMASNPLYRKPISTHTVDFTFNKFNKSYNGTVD
Description: A commercially available CMS (a carboxymethyl dextran introduction type, manufactured by GE Healthcare) sensor chip was set in Biacore 3000, which is a surface plasmon resonance apparatus manufactured by GE Healthcare, the sensor was stabilized at a flow rate of 10 μL/min of a HEPES (4-(2-hydroxyethyl)-1-piperazineethanesulfonic acid) buffer solution (20 mM HEPES-HCl, 150 mM NaCl, pH 7.4) for surface plasmon resonance (SPR), and 70 μL of a mixed aqueous solution of 0.2 M 1-(3-dimethylaminopropyl)-3-ethylcarbodiimide (EDC) and 0.04 M N-hydroxysuccinimide (NHS) was added thereto. Here, the concentration unit M represents mol/L, and the same applies hereinafter. Then, 20 μL of the sample solution of each of the above cyclic peptides diluted to 0.2 g/L with the HEPES buffer solution was supplied to the sensor chip, blocking treatment was subsequently carried out with an ethanolamine solution, and washing was carried out with a sodium hydroxide aqueous solution, whereby immobilization was carried out. However, only for the cyclic peptides 125, 126, and 127, in which the number of lysine residues having an amino group as the immobilizing functional group was zero, the amount of the sample solution to be supplied to the sensor chip was set to 500 μL instead of 20 μL. Further, 70 μL of the mixed aqueous solution of 0.2 M EDC and 0.04 M NHS was added to another flow channel of the same sensor chip without immobilizing the sample, and then blocking treatment and washing treatment were carried out. Hereinafter, the obtained immobilization-treated sensor chip is referred to as an “immobilization-treated sensor chip A”.
After adding human integrin αvβ5 for 10 minutes at 25° C., which was diluted to 30 nM using a HEPES buffer solution to which magnesium chloride was added to 5 mM, in each flow channel of the immobilization-treated sensor chip A prepared in (1) above, the same HEPES buffer solution (containing 5 mM magnesium chloride) was allowed to flow as a running buffer for 30 minutes, and measurement was carried out with Biacore 3000. Then, a regeneration treatment of removing human integrin αvβ5 was carried out by allowing a 0.5 M EDTA aqueous solution to flow through each flow channel for 10 minutes. Further, the above-described measurement process consisting of adding integrin for 10 minutes, allowing a running buffer to flow for 30 minutes, carrying out measurement with Biacore 3000, and carrying out regeneration treatment with 0.5 M EDTA aqueous solution was carried out in the same manner for 100 nM human integrin αvβ5, 300 nM human integrin αvβ5, and 1,000 nM human integrin αvβ5. Dissociation constant between the cyclic peptide and human integrin αvβ5 was calculated from the difference between the value measured by Biacore 3000 in the flow channel immobilized with the cyclic peptide and the value measured by Biacore 3000 in the flow channel unimmobilized with the cyclic peptide, in a case where each concentration of human integrin αvβ5 was allowed to flow, and the integrin binding property was evaluated according to the following evaluation standards. It is preferable that the evaluation result satisfies the evaluation standard A, B, or C.

[1] = Evaluation of molecule stability (alkali treatment, residual rate by LC/MS); format: physicochemical; conditions: for Performance evaluation: Stability (residual rate of cyclic peptide after alkali treatment): 500 μM peptide aqueous solution plus equivalent of 1 M sodium hydroxide, 15° C., 3 hours, LC/MS peak area; for Stability (molecule stability, residual rate of the cyclic peptide rank): alkali treatment, residual rate by LC/MS
Description: The molecule stability of the cyclic peptide was evaluated by analyzing the alkali-treated cyclic peptide aqueous solution by liquid chromatography mass spectroscopy (LC/MS).
The alkali treatment was carried out by the following method. A 500 μM cyclic peptide aqueous solution was prepared, an equivalent of 1 M sodium hydroxide aqueous solution was added to this aqueous solution, and the resultant mixture was incubated at 15° C. for 3 hours to obtain an alkali-treated cyclic peptide aqueous solution. The cyclic peptide residual rate was calculated by setting the total area of all peaks of the cyclic peptide before alkali treatment in LC/MS to 100% and determining the proportion of the total area of all peaks in LC/MS of the alkali-treated cyclic peptide aqueous solution, and the molecule stability was evaluated according to the following evaluation standards. It is preferable that the evaluation result satisfies the evaluation standard A, B, or C.
The conditions of the LC/MS used for the evaluation of molecule stability were set as follows. • LC apparatus: Prominence series (pump, column oven, autosampler, detector) (manufactured by Shimadzu Corporation) • MS detector: LC/MS2010EV (manufactured by Shimadzu Corporation) • Column: Cadenza CD-C18, inner diameter 2.0 mm×length 250 mm, particle size: 3 μm (manufactured by Imtakt Corporation) • Eluent A: a solution (pH 3) containing 10 mM ammonium formate as a solute, where the solvent is 100% water. • Eluent B: a solution (pH 3) containing 10 mM ammonium formate as a solute, where the solvent is acetonitrile/water=90/10. • Flow rate: 0.2 mL/min • Injection volume: 4 μL • Gradient: 0% to 30%: Eluent B (0 to 30 minutes), 100%: Eluent B (30 to 40 minutes), 0%: Eluent B (40 to 60 minutes) • Column temperature: 45° C. • Ionization method: electrospray ionization (ESI) positive, ESI negative

[2] = SPR, 25° C., HEPES buffer with 5 mM magnesium chloride, integrin 30-1,000 nM, read-out: Performance evaluation: Binding activity (dissociation constant between the cyclic peptide and human integrin αvβ5)
[3] = surface plasmon resonance, immobilized cyclic peptide, human integrin αvβ5, read-out: Binding activity (integrin binding property, dissociation constant rank)

SMILES | Kd (human integrin αvβ5; [2]) [nM] | Performance evaluation: Stability (residual rate of cyclic peptide after alkali treatment) [1] | Kd (human integrin αvβ5; [3]) [nM] | Stability (molecule stability, residual rate of the cyclic peptide rank) [1]
CC[C@H](C)[C@@H]1NC(=O)[C@@H](NC(=O)[C@H](CCCCN)NC(=O)[C@H](CCCCN)NC(=O)[C@@H](N)CCCCN)CCSCC(=O)NCC[C@@H](C(=O)N[C@@H](C)C(=O)O)NC(=O)[C@H](C)NC(=O)[C@H](C)NC(=O)[C@H](CCCNC(=N)N)NC(=O)[C@H](Cc2ccccc2)NC(=O)[C@H](CC(N)=O)NC(=O)[C@H](CC(=O)O)NC(=O)CNC(=O)[C@H](CCCNC(=N)N)NC(=O)[C@@H]2CCCN2C1=O [Cyclic peptide 19, KKK-(Hcy)-IPRGDNFRAA(Dab(acetyl))A] (H-KKK[hCys]IPRGDNFRAA[Dab]A-OH; linker 4-15 via X2) | < 50 | A (The residual rate of the cyclic peptide is 70% or more.) |  | 
CC[C@H](C)[C@@H]1NC(=O)[C@@H](NC(=O)[C@H](C)NC(=O)[C@H](CCCCN)NC(=O)[C@H](CCCCN)NC(=O)[C@@H](N)CCCCN)CCSCC(=O)NCC[C@@H](C(=O)NCC(=O)O)NC(=O)[C@H](C)NC(=O)[C@H](Cc2ccccc2)NC(=O)[C@H]([C@@H](C)O)NC(=O)[C@H](CC(=O)O)NC(=O)CNC(=O)[C@H](CCCNC(=N)N)NC(=O)[C@@H]2CCCN2C1=O [Cyclic peptide 85, KKKA-(Hcy)-IPRGDTFA(Dab(acetyl))G] (H-KKKA[hCys]IPRGDTFA[Dab]G-OH; linker 5-14 via X2) | < 50 | A (The residual rate of the cyclic peptide is 70% or more.) |  | 
C[C@@H]1NC(=O)[C@H](Cc2ccccc2)NC(=O)[C@H](CO)NC(=O)[C@H](CC(=O)O)NC(=O)CNC(=O)[C@H](CCCNC(=N)N)NC(=O)[C@@H]2CCCN2C(=O)[C@H]([C@@H](C)O)NC(=O)[C@@H](NC(=O)[C@H](CCCCN)NC(=O)[C@H](CCCCN)NC(=O)[C@@H](N)CCCCN)CCSCC(=O)NCC[C@@H](C(=O)O)NC1=O [Cyclic peptide 156, KKK-(Hcy)-TPRGDSFA(Dab(acetyl))] (H-KKK[hCys]TPRGDSFA[Dab]-OH; linker 4-13 via X2) |  |  | 50 to 100 | A (The residual rate of the cyclic peptide is 70% or more.)
CC(C)[C@@H]1NC(=O)[C@H](CC(=O)O)NC(=O)CNC(=O)[C@H](CCCNC(=N)N)NC(=O)[C@H]([C@@H](C)O)NC(=O)[C@H](C(C)C)NC(=O)[C@@H](NC(=O)[C@H](C)NC(=O)[C@H](CCCCN)NC(=O)[C@H](CCCCN)NC(=O)[C@@H](N)CCCCN)CCSCC(=O)NCC[C@@H](C(=O)N[C@@H](C)C(=O)O)NC(=O)[C@H]([C@@H](C)O)NC(=O)[C@H](Cc2ccccc2)NC1=O [Cyclic peptide 113, KKKA-(Hcy)-VTRGDVFT(Dab(acetyl))A] (H-KKKA[hCys]VTRGDVFT[Dab]A-OH; linker 5-14 via X2) |  |  | 50 to 100 | A (The residual rate of the cyclic peptide is 70% or more.)
CC[C@H](C)[C@@H]1NC(=O)[C@@H](NC(=O)CNC(=O)[C@H](CCCCN)NC(=O)[C@H](CCCCN)NC(=O)[C@@H](N)CCCCN)CCCNC(=O)CSC(C)(C)[C@@H](C(=O)N[C@@H](C)C(=O)O)NC(=O)[C@H](CCCNC(=N)N)NC(=O)[C@H](Cc2ccccc2)NC(=O)[C@H]([C@@H](C)O)NC(=O)[C@H](CC(=O)O)NC(=O)CNC(=O)[C@H](CCCNC(=N)N)NC(=O)[C@@H]2CCCN2C1=O [Cyclic peptide 134, KKKG(Orn(acetyl))IPRGDTFR-(Pen)-A] (H-KKKG[Orn]IPRGDTFR[Pen]A-OH; linker 5-14 via X1) |  |  | < 50 | A (The residual rate of the cyclic peptide is 70% or more.)
C[C@@H]1NC(=O)[C@H](Cc2ccccc2)NC(=O)[C@H]([C@@H](C)O)NC(=O)[C@H](CC(=O)O)NC(=O)CNC(=O)[C@H](CCCNC(=N)N)NC(=O)[C@@H]2CCCN2C(=O)[C@H]([C@@H](C)O)NC(=O)[C@@H](NC(=O)[C@H](CCCCN)NC(=O)[C@H](CCCCN)NC(=O)[C@@H](N)CCCCN)CCSCC(=O)NCC[C@@H](C(=O)O)NC1=O [Cyclic peptide 147, KKK-(Hcy)-TPRGDTFA(Dab(acetyl))] (H-KKK[hCys]TPRGDTFA[Dab]-OH; linker 4-13 via X2) |  |  | < 50 | A (The residual rate of the cyclic peptide is 70% or more.)
